Source: patent publication US20230355578A1, “PHARMACEUTICAL COMBINATIONS OF STATINS AND FIBRATES FOR THE TREATMENT AND PREVENTION OF […] AND CARDIOVASCULAR DISEASE” (LABORATORIOS SILANES S.A. DE C.V., priority 2020, published 2023)
Where two headings read alike, the source gives them in different places.

Key:
OATP1B1 = biological target: T1, OATP1B1 (Homo sapiens, UniProt Q9Y6L6); conditions: Wong, 2006, Yamazaki, 2005; cited from earlier work
T1 sequence (Q9Y6L6 1-691): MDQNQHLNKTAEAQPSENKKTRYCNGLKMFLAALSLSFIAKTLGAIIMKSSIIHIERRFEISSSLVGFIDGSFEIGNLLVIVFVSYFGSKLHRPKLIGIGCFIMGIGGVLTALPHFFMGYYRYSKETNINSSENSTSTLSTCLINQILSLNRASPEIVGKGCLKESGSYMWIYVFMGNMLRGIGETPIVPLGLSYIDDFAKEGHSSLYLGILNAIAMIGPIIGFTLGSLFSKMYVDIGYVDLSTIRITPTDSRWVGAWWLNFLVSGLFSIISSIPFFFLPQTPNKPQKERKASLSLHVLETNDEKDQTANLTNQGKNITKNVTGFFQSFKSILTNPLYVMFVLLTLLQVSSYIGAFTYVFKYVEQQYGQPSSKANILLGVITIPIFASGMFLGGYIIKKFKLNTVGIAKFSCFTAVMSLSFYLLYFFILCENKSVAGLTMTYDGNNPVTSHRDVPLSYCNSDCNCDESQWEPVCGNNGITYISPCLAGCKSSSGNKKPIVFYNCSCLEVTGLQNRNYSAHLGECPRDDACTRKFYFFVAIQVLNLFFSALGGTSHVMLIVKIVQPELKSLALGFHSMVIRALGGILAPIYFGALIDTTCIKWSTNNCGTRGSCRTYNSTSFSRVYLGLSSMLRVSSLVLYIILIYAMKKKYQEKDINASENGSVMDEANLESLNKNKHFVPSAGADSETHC

[1] = Particle size distribution by laser beam diffraction; type: physicochemical
Experimental: The determination of the particle size distribution by laser beam diffraction for micronized fenofibrate was carried out using a DPS module in a particle size analyzer.
Determination of particle size distribution by laser beam diffraction was carried out for micronized fenofibrate by placing 0.5 g of the raw material in a sample holder and using a DPS module in the particle size analyzer to obtain an obscuration of 4-7%. The determination is made in duplicate.

cytochrome P450 = conditions: Wong, 2006, Yamazaki, 2005; cited from earlier work
P-gp = P-gp (Homo sapiens, UniProt P08183); conditions: Wong, 2006, Yamazaki, 2005; cited from earlier work
[2] = cited from earlier work

P-gp, sequence (P08183 whole entry): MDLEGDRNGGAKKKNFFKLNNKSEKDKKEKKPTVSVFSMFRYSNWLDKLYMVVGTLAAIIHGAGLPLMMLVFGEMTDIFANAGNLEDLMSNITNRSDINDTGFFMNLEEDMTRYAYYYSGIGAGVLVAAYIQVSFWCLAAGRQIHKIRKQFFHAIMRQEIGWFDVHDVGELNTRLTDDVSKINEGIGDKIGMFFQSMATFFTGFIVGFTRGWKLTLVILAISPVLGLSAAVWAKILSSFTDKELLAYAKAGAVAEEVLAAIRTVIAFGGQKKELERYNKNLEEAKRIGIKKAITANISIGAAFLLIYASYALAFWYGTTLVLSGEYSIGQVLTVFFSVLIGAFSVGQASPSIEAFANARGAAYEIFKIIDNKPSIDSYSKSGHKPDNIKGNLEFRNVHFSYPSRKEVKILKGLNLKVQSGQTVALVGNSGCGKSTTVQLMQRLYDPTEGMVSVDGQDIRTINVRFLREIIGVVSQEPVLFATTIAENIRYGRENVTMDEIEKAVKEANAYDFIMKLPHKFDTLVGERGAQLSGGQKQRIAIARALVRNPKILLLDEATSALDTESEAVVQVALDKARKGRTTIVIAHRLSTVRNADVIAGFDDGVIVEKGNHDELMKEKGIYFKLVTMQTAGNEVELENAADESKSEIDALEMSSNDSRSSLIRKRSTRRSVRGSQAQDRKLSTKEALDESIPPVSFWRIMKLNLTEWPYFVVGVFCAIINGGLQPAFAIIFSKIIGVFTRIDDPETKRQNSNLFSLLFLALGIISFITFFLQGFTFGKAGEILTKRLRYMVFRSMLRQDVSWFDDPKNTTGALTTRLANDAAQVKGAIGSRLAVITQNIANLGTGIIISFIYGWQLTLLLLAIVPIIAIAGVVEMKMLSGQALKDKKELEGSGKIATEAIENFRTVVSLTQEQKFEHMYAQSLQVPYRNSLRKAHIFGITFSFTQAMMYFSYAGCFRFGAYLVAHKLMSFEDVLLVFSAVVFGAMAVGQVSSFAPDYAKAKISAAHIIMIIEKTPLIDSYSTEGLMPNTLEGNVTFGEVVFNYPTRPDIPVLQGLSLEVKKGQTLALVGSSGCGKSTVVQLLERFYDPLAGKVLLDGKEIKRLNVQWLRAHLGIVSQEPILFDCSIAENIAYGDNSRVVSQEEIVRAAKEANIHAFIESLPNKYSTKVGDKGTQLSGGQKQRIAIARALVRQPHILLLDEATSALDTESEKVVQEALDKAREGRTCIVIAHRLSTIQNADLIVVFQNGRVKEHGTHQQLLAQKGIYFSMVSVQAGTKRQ

particle size distribution (100%) [1]	particle size distribution (d10) [1]	particle size distribution (d50) [1]	particle size distribution (d90) [1]	SMILES	drug-drug interaction potential by inhibition of OATP1B1 (OATP1B1)	metabolism via cytochrome P450 (cytochrome P450)	inhibition of P-gp-mediated transport (P-gp)	concentrations reported in the literature ([2]; Back, 2018, Moffat, 2011)	concentrations reported in the literature ([2]; Chou, 2013)
less than 30 μm	≤ 0.95 μm	≤ 5.35 μm	≤ 11.28 μm	CC(C)OC(=O)C(C)(C)Oc1ccc(C(=O)c2ccc(Cl)cc2)cc1 [fenofibrate]	do not have a potential to cause a clinically significant drug-drug interaction by inhibition of OATP1B1	are not metabolized via cytochrome P450	do not significantly inhibit P-gp-mediated transport	–	–
–	–	–	–	CC(C)(Oc1ccc(C(=O)c2ccc(Cl)cc2)cc1)C(=O)O [fenofibric acid]	do not have a potential to cause a clinically significant drug-drug interaction by inhibition of OATP1B1	are not metabolized via cytochrome P450	do not significantly inhibit P-gp-mediated transport	3.17-30 μm/mL	–
–	–	–	–	CC(C)c1c(C(=O)Nc2ccccc2)c(-c2ccccc2)c(-c2ccc(F)cc2)n1CC[C@@H](O)C[C@@H](O)CC(=O)O [atorvastatin]	–	–	–	–	2.5 to 50.1 ng/mL
